Measured values from US20070105789A1, “Combinatorial chemotherapy treatment using Na+/K+ ATPase inhibitors” (priority 2004, published 2007).
Values after ≈ are worked out from the molar mass of the structure shown. Like-named read-outs stand apart in the source and are kept apart here.

Key:
cats = details: cited from earlier work
[1] = system: Caki-1 human renal cancer xenograft; assay type: in vivo, nude mice; details: Caki-1
Description: (§1) Female nude mice (nu/nu) between 5 and 6 weeks of age weighing approximately 20 g were implanted subcutaneously (s.c.) by trocar with fragments of human tumors harvested from s.c. grown tumors in nude mice hosts. […] Each group contains 8-10 mice, each of which was ear tagged and followed throughout the experiment.
(§2) The administration of drugs or controls began the day the animals were pair-matched (Day 1). […] Mice were weighed and tumor measurements were obtained using calipers twice weekly, starting Day 1. These tumor measurements were converted to mg tumor weight by standard formula, (W^2×L)/2. The experiment is terminated when the control group tumor size reached an average of about 1 gram. Upon termination, the mice were weighed, sacrificed and their tumors excised. The tumors were weighed and the mean tumor weight per group was calculated.

[2] = cited from earlier work
[3] = cited from earlier work; remark: listed apart in the source
Na+/K+-ATPase [4] = details: Erdmann E 1978; cited from earlier work
HIF-1α [5] = assay: Western blot using anti-HIF-1α antibody (Example XVI); assay type: cell-based
[6] = steady state serum level of about 50 ng/mL, xenograft nude mouse model
Na+/K+-ATPase [7] = target: T1, Na+/K+-ATPase (Canis lupus familiaris, UniProt P50997); assay: Na+/K+-ATPase inhibition; assay type: biochemical, dog; details: read-out: IC50 for inhibition of Na+/K+-ATPase
T1 construct: enzyme preparation from dog kidney (Sigma); purchased Sigma; host or cells: dog kidney tissue
Protocol: (§3) Anti-prolerafitive IC50 values were determined by MTS assay using an A549 cell line. Na^+/K^+-ATPase inhibition IC50 values were obtained using enzyme preparation from dog kidney (Sigma).

rats = details: cited from earlier work
HIF-1α [8] = assay: HIF-1α induced under normoxia by PHD inhibitor L-mimosone, Hep3B Western blot; assay type: cell-based, human; details: 200 μM L-mimosone, 18 h
Protocol: Abundance of HIF-1α and β-actin was determined by western blotting.

[9] = system: panel of 10 cancer cell lines; assay: cytotoxicity against a panel of 10 cancer cell lines; assay type: cell-based; details: read-out: median IC50
VEGF = VEGF secretion in tumor cells; assay type: cell-based; details: FIG. 8
[10] = effective plasma concentration and effective oral dose in patients; assay type: in vivo; details: Homo sapiens, cancer indications, 1.5 to 3 times that of cardiac indications, read-out: median effective concentration (EC50) of free drug
[11] = at therapeutic plasma level; cited from earlier work
[12] = system: Panc-1 human pancreatic xenograft; assay: Panc-1 human pancreatic tumor xenograft in nude mice; assay type: in vivo; details: Panc-1; BNC-4 15 mg/ml s.c. pump; Gemcitabine 40 mg/kg q3d×4
Description: as §1, §2
(§4) The control animals received pumps containing vehicle (50% DMSO in DMEM). The mice treated with standard chemotherapy agent received intra-peritoneal injections of Gemcitabine at 40 mg/kg every 3 days for 4 treatments (q3d×4). Each data point represent average tumor weight (n=8) and error bars indicate SEM.
as §4

A549 cell line = assay: anti-proliferation MTS assay in A549 cell line; assay type: cell-based; details: Homo sapiens
Protocol: as §3

A549 Sentinel Line = assay: Sentinel Line reporter assay (beta-gal, FACS); assay type: cell-based, human; details: A549 sentinel line, with Gemcitabine, 40 hrs
Protocol: The expression level of beta-galactosidase gene in sentinel lines was determined by using a fluorescent substrate fluorescein di-B-D-Galactopyranside (FDG, Marker Gene Tech, #M0250) introduced into cells by hypotonic shock. Cleavage by beta-galactosidase results in the production of free fluorescein, which is unable to cross the plasma membrane and is trapped inside the beta-gal positive cells. Briefly, the cells to be analyzed are trypsinized, and resuspended in PBS containing 2 mM FDG (diluted from a 10 mM stock prepared in 8:1:1 mixture of water: ethanol: DMSO). The cells were then shocked for 4 minutes at 37° C. and transferred to FACS tubes containing cold 1×PBS on ice. Samples were kept on ice for 30 minutes and analyzed by FACS in FLI channel.
Sentinel Line cells with beta-galactosidase reporter gene were plated at 1×10^5 cells/10 cm dish. […] After 40 hrs, the cells were trypsinized and the expression level of reporter gene was determined by FDG loading.
The reporter activity was measured by FACS analysis.

[13] = 12 healthy individuals, 2×0.5 mg for 8 days, radio-immunoassay

In the case of `C[C@@H]1OC(OC2C=C3CCC4C(CC[C@]5(C)[C@@H](c6ccc(=O)oc6)CC[C@]45O)[C@@]3(C)CC2)[C@H](O)[C@H](O)[C@H]1O` (stereo partly drawn) [BNC-4, proscillaridin], the intravenous toxicity (cats) is given as 0.193 mg/kg, the TGI ([1]; BNC-4 5 mg/ml s.c. pump) is given as 43% and the TGI ([1]; BNC-4 15 mg/ml s.c. pump) is given as 73%. The Tmax [2, 13] was 48 ± 30 min, the “median AUC” value [2, 13] was 0.385 ± 0.0436 µg·h/mL and the “median Cmax” value [2, 13] was 0.0235 ± 0.0026 µg/mL. The “plasma half-life in human” value ([2]; according to the literature) was “about 40 hours”, the “measurable unconjugated drug as share of the administered quantity” value ([2]; after oral administration) was 7% and the “median plasma half-life (T1/2)” value ([2]; cardiac patients) was “up to 49 hours”. For the same compound, the absolute bioavailability ([2]; dosage form with acid-resistant (enteric) coating) was “about 35%”, the “Volume-of-Distribution (VD)” value ([2]; in vivo) was 562 L and the daily clearance ([2]; in vivo) was ~35%. The “drug and its metabolites excreted by the bile” value ([2]; in vivo) was “Greater than 99%”, the “total level of metabolism” value ([2]; in vivo) was > 95% and the “unchanged drug excreted by the kidneys” value ([2]; in vivo) was “less than 1%”. For the same compound, the “time of second, longer-lasting blood level peak” value ([2]; oral) was “about 1 hour”, the “time of third plasma peak after dosing” value ([2]; oral) was “about 10 hours” and the “higher absorption with decreased stomach acid production” value ([2]; patients taking antacids) was “up to 60%”. The “oral absorption, accepted median” value ([2]; simple oral formulations) was “about 20%”, the “tolerability in cancer patients” value ([3]; 0.25 to 0.5 mg/d i.v. for four days before surgery, 50 patients) was “well tolerated by all cancer patients with no appearance of either gastrointestinal or cardiac side effects” and the patients exhibiting side-effects ([3]; 47 clinical studies, 3740 patients) was “about 6.3%”. The “reported cases where therapy could be resumed after a brief hiatus” value ([3]; 47 clinical studies) was > 95%, the “patients taken off the treatment for negative side effects” value ([3]; 1067 patients observed for up to 3 years) was 0.7% and the well tolerated dose ([3]; cardiac patients) was “up to 1.5 mg/d”. For the same compound, the well tolerated dose ([3]; cardiac patients, listed as Proscillaridin A) was ~1.5 mg/day, the well tolerated dose ([3]; cardiologically-normal individuals) was “up to 3.5 mg/d” and the “dose producing typical intoxication symptoms” value ([3]; healthy individuals) was “above 4 mg p.o./d”. The side effects ([3]; healthy volunteers, 1.5 mg daily for 20 days) was “no negative side effects”, the “average level of side effects in clinical reports” value ([3]; nausea, seasickness, headache, vomiting, stomach cramps, diarrhea) was 5% and the “long-term or late-appearing chronic toxicity” value ([3]; review of a total of 3740 patients) was “none of these cases noted any long-term or late-appearing chronic toxicity”. The “order of Na+/K+-ATPase-inhibition” value (Na+/K+-ATPase [4]) was “Ouabain<Digoxin<Proscillaridin”, the HIF-1α expression (HIF-1α [5]; 0.1 μM) was “completely inhibits” and the HIF-1α expression (HIF-1α [5]; 1 μM) was “completely inhibits”. The “TGI (tumor growth inhibition)” value [6] was “greater than 60%”, the IC50 (Na+/K+-ATPase [7]) was ~0.13 µM and the LD50 p.o. (rats; adult) was 0.25 mg/kg. For the same compound, the LD50 p.o. (rats; young animals (female)) was 76 mg/kg, the “HIF-1α accumulation induced by L-mimosone” value (HIF-1α [8]) was “eliminated HIF-1α accumulation by L-mimosone” and the IC50 [9] was ~0.023 µM. The “secretion of VEGF in tumor cells” value (VEGF) was “directly or indirectly inhibits”, the EC50 [10] was 1.2 to 2.5 ng/mL (≈ 2.26 to 4.71 nM) and the “bound to plasma protein” value [11] was “about 85%”. The TGI [12] was “about 87%”, the IC50 (A549 cell line) was ~0.0021 µM and the “effect on Gemcitabine-induced reporter activity” value (A549 Sentinel Line) was “significantly shift the reporter activity to the left”.
